Data as given in patent publication US20240228481A1, “NOVEL SULFONAMIDE SERIES OF QR2 INHIBITORS TO TACKLE OXIDATIVE STRESS AND COGNITIVE DECLINE” (CARMEL HAIFA UNIVERSITY ECONOMIC CORPORATION LTD., priority 2021, published 2024).

Assays:
in vitro = conditions: human
QR2 [1] = target: T1, QR2 (Homo sapiens, UniProt P16083); assay: QR2 enzymatic activity assay (menadione/BNAH), absorbance readout at 350 nm; assay type: biochemical; set-up: purchased Sigma-Aldrich
T1 sequence (P16083 1-231): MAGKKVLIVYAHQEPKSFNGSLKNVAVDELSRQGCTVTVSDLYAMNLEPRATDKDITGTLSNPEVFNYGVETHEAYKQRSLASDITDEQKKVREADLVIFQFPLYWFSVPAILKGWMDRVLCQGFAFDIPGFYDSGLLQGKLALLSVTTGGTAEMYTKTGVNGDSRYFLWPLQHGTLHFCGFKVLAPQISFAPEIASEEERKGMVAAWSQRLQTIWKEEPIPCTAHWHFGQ
Experimental: (§1) The enzymatic activity of QR2 (10 nM) was measured using menadione (both Sigma-Aldrich) as substrate and dihydrobenzylnicotamide (BNAH; Tocris) as co-substrate (Boutin et al., 2005). The reaction was performed in 50 mM Tris HCl, 150 mM NaCl 0.01% Tween-20 pH=8.5 (Sigma-Aldrich) at room temperature. Briefly, 3 μL of menadione alone (200 μM) or a mixture of menadione and QR2 (200 μM of menadione and 10 nM of QR2) were dispensed in 1536-well black Nunc plates (Thermo-Fisher) using a Multidrop™ Combi Reagent Dispenser (Thermo-Fisher) and pre-incubated with compounds for 10 min. BNAH (200 μM) was then added (3 μL) to the reaction using a BioNex Solutions BNX 1536 plate washer and the plates were incubated for another 10 min. […] The initial HTS was done with approximately 200,000 compounds at a single concentration of 5 μM. The chemical libraries used were Selleck Chemicals Bioactives, the Drug-like set from Enamine, HitFinder collection from Maybridge, Spectrum Collection from Microsource, Lopac from Sigma-Aldrich and the diversity sets from ChemDiv and ChemBridge. Initial “hit” compounds were defined as causing >30% reduction of enzyme activity. […] “Hit” compounds resulting from both the fluorescence and absorbance assay were tested in a dose-response, and median inhibition concentration (IC50) values were determined. In parallel, the same dose response was used in a selectivity assay where QR2 enzyme was replaced by QR1 (also known as—NQO1, 10 nM; Sigma-Aldrich).
(§2) In order to establish a varied, flexible and chemically amenable starting point from which to develop such inhibitors, the inventors ran a standardized QR2 assay (see methods) against ˜200,000 compounds, from a varied assortment of chemical libraries.

QR2 [2] = target: T1, QR2; assay: QR2 enzymatic activity assay (menadione/BNAH), fluorescence readout; assay type: biochemical; set-up: purchased Sigma-Aldrich
Experimental: as §1, §2

QR1 (NQO1) [3] = target: T2, QR1 (NQO1) (Homo sapiens, UniProt P15559); assay: Selectivity assay with QR1 in place of QR2, absorbance readout; assay type: biochemical
T2 construct: purchased Sigma-Aldrich
T2 sequence (P15559 whole entry): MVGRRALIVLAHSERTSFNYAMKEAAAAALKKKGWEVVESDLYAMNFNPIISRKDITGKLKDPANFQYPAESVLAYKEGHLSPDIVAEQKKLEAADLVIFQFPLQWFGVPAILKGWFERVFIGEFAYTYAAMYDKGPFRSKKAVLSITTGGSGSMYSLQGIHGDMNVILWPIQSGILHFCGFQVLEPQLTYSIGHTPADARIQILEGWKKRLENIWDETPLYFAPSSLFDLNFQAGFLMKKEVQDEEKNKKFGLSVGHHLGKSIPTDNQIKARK
Experimental: (§3) The enzymatic activity of QR2 (10 nM) was measured using menadione (both Sigma-Aldrich) as substrate and dihydrobenzylnicotamide (BNAH; Tocris) as co-substrate (Boutin et al., 2005). The reaction was performed in 50 mM Tris HCl, 150 mM NaCl 0.01% Tween-20 pH=8.5 (Sigma-Aldrich) at room temperature. Briefly, 3 μL of menadione alone (200 μM) or a mixture of menadione and QR2 (200 μM of menadione and 10 nM of QR2) were dispensed in 1536-well black Nunc plates (Thermo-Fisher) using a Multidrop™ Combi Reagent Dispenser (Thermo-Fisher) and pre-incubated with compounds for 10 min. BNAH (200 μM) was then added (3 μL) to the reaction using a BioNex Solutions BNX 1536 plate washer and the plates were incubated for another 10 min. […] The initial HTS was done with approximately 200,000 compounds at a single concentration of 5 μM. The chemical libraries used were Selleck Chemicals Bioactives, the Drug-like set from Enamine, HitFinder collection from Maybridge, Spectrum Collection from Microsource, Lopac from Sigma-Aldrich and the diversity sets from ChemDiv and ChemBridge. Initial “hit” compounds were defined as causing >30% reduction of enzyme activity. Compounds suspected to be fluorescent were re-assayed in an absorbance assay at 350 nm using the same reaction but in a higher volume (100 μL), in a transparent plate (Greiner Bio-One). “Hit” compounds resulting from both the fluorescence and absorbance assay were tested in a dose-response, and median inhibition concentration (IC50) values were determined. In parallel, the same dose response was used in a selectivity assay where QR2 enzyme was replaced by QR1 (also known as—NQO1, 10 nM; Sigma-Aldrich).
(§4) In order to establish a varied, flexible and chemically amenable starting point from which to develop such inhibitors, the inventors ran a standardized QR2 assay (see methods) against ˜200,000 compounds, from a varied assortment of chemical libraries. […] Compounds that replicated the initial hit result were then assayed similarly, against NQO1, to evaluate compound specificity (FIG. 1B). From the HTS, a series of compounds containing a sulfonamide central linker, with an amine on one side and a heterocycle on the other, were identified and selected for SAR development (FIG. 1C).

QR1 (NQO1) [4] = target: T2, QR1 (NQO1); assay: Selectivity assay with QR1 in place of QR2, fluorescence readout; assay type: biochemical
Experimental: as §3, §4

IC50 at 72 h (in vitro) | IC50 (QR2 [1]) | IC50 (QR2 [2]) | IC50 (QR1 (NQO1) [3]) | IC50 (QR1 (NQO1) [4]) | Compound
59.4 µM | 4.49 µM | 3.96 µM | – | – | Cc1ccn2cc(-c3ccc(C)c(S(=O)(=O)N4CCC(C)CC4)c3)nc2c1 [PCM-0214339]
88.9 µM | 0.16 µM | 0.59 µM | > 9.99 µM | > 9.99 µM | Cc1ccn2cc(-c3cccc(S(=O)(=O)N4CCCC4)c3)nc2c1 [PCM-0124535]
23.8 µM | 1.24 µM | 1.92 µM | > 9.99 µM | > 9.99 µM | Cc1cc(-c2ccc(C)c(S(=O)(=O)N3CCCCCC3)c2)on1 [PCM-0212385]
50 µM | 1.83 µM | 2.89 µM | > 9.99 µM | > 9.99 µM | Cc1cc(-c2ccc(C)c(S(=O)(=O)N3CCC(C)CC3)c2)on1 [PCM-0212387]
> 99 µM | 0.02 µM | 0.02 µM | 7.18 µM | > 9.99 µM | Cc1cccn2cc(-c3cccc(S(=O)(=O)NCc4cccnc4)c3)nc12 [PCM-0213814]
– | 2.03 µM | 0.83 µM | > 9.99 µM | 8.77 µM | COc1ccc(OC)c(S(=O)(=O)Nc2cccc(-c3cn4c(C)csc4n3)c2)c1 [PCM-0121306]
64.1 µM | 0.01 µM | 0.01 µM | 4.22 µM | 3.33 µM | Cc1cccn2cc(-c3cccc(S(=O)(=O)N4CCN(C(=O)c5ccco5)CC4)c3)nc12 [PCM-0213792]
– | 2.73 µM | 3.82 µM | > 9.99 µM | > 9.9 µM | COc1cc(Cl)c(NS(=O)(=O)c2ccc(-c3cc(C)no3)cc2OC)c(OC)c1 [PCM-0131156]
– | 3.03 µM | 4.42 µM | > 9.99 µM | > 9.9 µM | Cc1ccc2nc(-c3cccc(S(=O)(=O)N4CC(C)OC(C)C4)c3)cn2c1 (stereo not drawn) [PCM-0124655]
– | 1.65 µM | 3.25 µM | > 9.99 µM | > 9.9 µM | Cc1ccc2nc(-c3cccc(S(=O)(=O)N4CCOCC4)c3)cn2c1 [PCM-0124615]
– | 4.58 µM | 7.4 µM | > 9.99 µM | > 9.99 µM | Cc1nc(-c2ccc(C)c(S(=O)(=O)N3CCC(C)CC3)c2)cs1 [PCM-0197104]
– | 2.91 µM | 5.45 µM | > 9.99 µM | > 9.99 µM | Cc1nc(-c2ccc(C)c(S(=O)(=O)NCCCN3CCCC3=O)c2)cs1 [PCM-0213793]
– | 0.11 µM | 0.25 µM | > 9.99 µM | > 9.99 µM | Cc1cccn2cc(-c3cccc(S(=O)(=O)NCCCN4CCCC4=O)c3)nc12 [PCM-0213794]
– | 1.06 µM | 3.38 µM | > 9.99 µM | > 9.99 µM | Cc1ccc(-c2nnc(-c3ccccc3)o2)cc1S(=O)(=O)N1CCCCCC1 [PCM-0213797]
– | > 9.99 µM | > 9.9 µM | > 9.99 µM | > 9.9 µM | CCOC(=O)c1cc(-c2ccc(OC)c(S(=O)(=O)N3CCCc4ccccc43)c2)on1 [PCM-0120247]
> 99 µM | 0.03 µM | 0.02 µM | > 9.99 µM | > 9.99 µM | Cc1ccc(-c2cn3cccc(C)c3n2)cc1S(=O)(=O)N1CCCCCC1 [PCM-0214338]
– | 2.44 µM | > 9.99 µM | > 9.99 µM | > 9.99 µM | Cc1nc(-c2ccc(C)c(S(=O)(=O)N3CCCCCC3)c2)cs1 [PCM-0213796]

IC50 at 72 h (in vitro) | IC50 (QR2 [1]) | IC50 (QR2 [2]) | IC50 (QR1 (NQO1) [3]) | IC50 (QR1 (NQO1) [4]) | Compound
– | 8.89 µM | > 9.9 µM | > 9.99 µM | 4.6 µM | CCCS(=O)(=O)Nc1ccc2c(c1)C(=O)Nc1cc(C)ccc1O2 [PCM-0120253]
– | 0.27 µM | 0.9 µM | > 9.99 µM | > 9.99 µM | Cc1cc(-c2ccc(C)c(S(=O)(=O)N3CCC(C)CC3)c2)n[nH]1 [PCM-0213799]
249 µM | 2.16 µM | 2.72 µM | > 9.99 µM | > 9.9 µM | Cc1cc(-c2ccc(C)c(S(=O)(=O)NCc3cccnc3)c2)on1 [PCM-0184959]
45.4 µM | 0.01 µM | 0.004 µM | 7.24 µM | 5.83 µM | Cc1cccn2cc(-c3cccc(S(=O)(=O)N4CCCCCC4)c3)nc12 [PCM-0124812]
– | 0.11 µM | 0.27 µM | 7.15 µM | > 9.99 µM | Cc1ccn2cc(-c3ccc(C)c(S(=O)(=O)N4CCN(C(=O)c5ccco5)CC4)c3)nc2c1 [PCM-0213790]
219 µM | 2.37 µM | 3.26 µM | > 9.99 µM | > 9.9 µM | Cc1cc(-c2ccc(C)c(S(=O)(=O)NCCCN3CCCC3=O)c2)on1 [PCM-0184891]
– | > 9.99 µM | > 9.9 µM | > 9.99 µM | > 9.9 µM | Cc1c(-c2nnc(C3CCC3)o2)c(S(=O)(=O)NCc2ccc(Cl)cc2)c(C)n1C [PCM-0128885]
– | 0.16 µM | 0.39 µM | > 9.99 µM | > 9.99 µM | Cc1cc(-c2ccc(C)c(S(=O)(=O)N(C)C)c2)n[nH]1 [PCM-0213802]
– | 0.98 µM | 3.16 µM | > 9.99 µM | > 9.99 µM | Cc1cc(-c2ccc(C)c(S(=O)(=O)NCc3cccnc3)c2)n[nH]1 [PCM-0213811]
– | > 9.99 µM | > 9.9 µM | > 9.99 µM | > 9.9 µM | CCCn1cc(C2CCN(S(=O)(=O)c3ccc(C(C)(C)C)cc3)CC2)c2cccnc21 [PCM-0105813]
– | 2.56 µM | 3.98 µM | > 9.99 µM | > 9.9 µM | Cc1cc(-c2ccc(C)c(S(=O)(=O)NCC3CCN(Cc4ccco4)CC3)c2)on1 [PCM-0136246]
– | > 9.99 µM | > 9.9 µM | > 9.99 µM | > 9.9 µM | Cc1csc(-c2cc(S(=O)(=O)NC3CCCCC3)c(C)n2C)n1 [PCM-0195577]
– | > 9.99 µM | > 9.9 µM | > 9.99 µM | > 9.9 µM | CCCS(=O)(=O)N1CCCc2cc(NC(=O)c3ccco3)ccc21 [PCM-0120563]
– | 9.05 µM | > 9.9 µM | > 9.99 µM | > 9.9 µM | CCCn1cc(C2=CCN(S(=O)(=O)Cc3ccccc3)CC2)c2cccnc21 [PCM-0105851]
– | > 9.99 µM | > 9.9 µM | > 9.99 µM | > 9.9 µM | COc1ccc(O)cc1NC(=O)c1oc2ccc(S(=O)(=O)N3CCCC3)cc2c1C [PCM-0193675]
– | 0.28 µM | 0.64 µM | > 9.99 µM | > 9.99 µM | Cc1cc(-c2ccc(C)c(S(=O)(=O)N3CCCCCC3)c2)[nH]n1 [PCM-0213795]
– | 0.75 µM | 9.62 µM | 8.6 µM | > 9.99 µM | Cc1ccn2cc(-c3cccc(S(=O)(=O)NCc4cccnc4)c3)nc2c1 [PCM-0213812]
